Where “and” joins values, the source holds several entries; their conditions need not be identical. Identical values can stand only once. Like-named read-outs stand apart in the source and are kept apart here.
Assays:
[1] = system: prostate tissue; test: Efficacy and safety of local prostate implant in male beagle dogs: side effects, urinated volume, histopathology (Example 3); assay type: in vivo, dog
Experimental: The major purpose of the present animal study was to examine the efficacy and safety of the new local drug delivery system with 2-hydroxyflutamide, a selective antagonist of the androgen receptor (AR) as the active moiety in human prostate tissue during various treatment periods in male dogs. The dog has been selected as the test model because of its proven suitability in this type of study. The study was performed in 12 male beagle dogs from Harlan Winkelmann GmbH, Germany. The sterile controlled release implant was composed of ceramic compounds and 2-hydroxyflutamide. Storage and handling instructions were given. The composition of the formulation of the low and high dose was 250 mg of 2-hydroxyflutamide +2.25 g calcium sulphate […] +5.0 g calcium sulphate hemi-hydrate and it was mixed with solution: 3.5 ml of water solution (with 1% acetic acid and 1% methyl cellulose). The final formulation work was done during sterile conditions by trained personal at the experimental day. […] The animals were fasted for at least 12 hours prior to the insertion procedure on Day 1. The implant drug delivery system was inserted locally into the prostate tissue, via rectum, through sterile needles during rectal ultrasound guidance. Each animal was under anesthesia during the insertion procedure.

[2] = Observation of behaviour and side effects (diarrhea) in dogs (Example 1); assay type: in vivo, dog
Experimental: First, four male dogs (H1-H4) (Labrador, approx. 1 year of age and weight 30 kg) were given 2-hydroxy-flutamide (25 mg) by single bolus doses intravenously during 30 seconds. The intravenous solution base was sterile saline […], sterile polyethylene glycol 400 46% and ethanol (95%) 6%. Blood samples of 1.0 ml were taken from the Cephalic vein at 5, 10, 15, 30, 60, 90, 120, 240, 360, and 600 minutes. The blood samples were immediately centrifuged at 3000 rpm and the plasma samples were frozen at −80° C. until analysis.
One week later, the same animals were given 2-hydroxy-flutamide locally by a controlled release pharmaceutical composition in the prostate tissue. The 2-hydroxy- flutamide doses were 0 mg (H1), 30 mg (H3), 60 mg (H2) and 120 mg (H4), and each dog was given one implant only. Where H1 was a control given the composition without 2-hydroxy-flutamide. All doses of 2-hydroxy-flutamide were given after an overnight fast. Dog 1 (H1) and dog 3 (H3) were given an enema preoperatively. After the local prostate application of the pharmaceutical composition through rectum, an antibiotic (Quinolon) was administered in normal doses.

[3] = Plasma pharmacokinetics after local prostate implant in male beagle dogs (Example 3); assay type: in vivo, dog; conditions: for F (bioavailability): beagle dog; for F (bioavailability) / bioavailability: approximated with average i.v. clearance of Example 1; for half-life: read-out: t½ (converted); for bioavailability: iv, read-out: F (bioavailability)
Experimental: The dog has been selected as the test model because of its proven suitability in this type of study. The study was performed in 12 male beagle dogs from Harlan Winkelmann GmbH, Germany.
The sterile controlled release implant was composed of ceramic compounds and 2-hydroxyflutamide. Storage and handling instructions were given. The composition of the formulation of the low and high dose was 250 mg of 2-hydroxyflutamide +2.25 g calcium sulphate di-hydrat +5.0 g calcium sulphate hemi-hydrate and it was mixed with solution: 3.5 ml of water solution (with 1% acetic acid and 1% methyl cellulose).
The final formulation work was done during sterile conditions by trained personal at the experimental day. The amount injected into each lobe of the androgen sensitive bulbourethral gland was about 2.0-3.0 ml for the low dose (250 mg) and 4.0-6.0 ml of the high dose (500 mg).
The animals were fasted for at least 12 hours prior to the insertion procedure on Day 1. The implant drug delivery system was inserted locally into the prostate tissue, via rectum, through sterile needles during rectal ultrasound guidance. Each animal was under anesthesia during the insertion procedure.
Blood samples for pharmacokinetic was collected as follows: On Day 1: Pre-insertion and 6 hours after insertion. Blood samples were sampled in the morning on Days 2, 3, 4, 5, 6 and 7. During the rest of the study blood samples were collected once a week.
Blood samples of approximately 3 ml were drawn from the jugular vein. The blood was sampled into vacutainers containing EDTA as anticoagulant. The blood was placed in ice water until centrifugation (10 min, 1270 G, +4° C.). The plasma was transferred to Nunc cryotubes (Nunc, Denmark) and frozen at −18° C. or below and sent with dry ice to Swedish Veterinary Institute, Uppsala for analysis.
The plasma pharmacokinetic variables were calculated using standard pharmacokinetic methods and are given for both implant doses of 250 mg and 500 mg in Tables 6 and 7. The bioavailability (F) was approximated by using the average value for clearance of 2-hydroyflutamide when it was given by an intravenous dose in the dog study presented in Example 1.

[4] = Plasma pharmacokinetics and tissue level after controlled release implant into bulbourethral gland of male sheep (Example 2); assay type: in vivo; conditions: three moths after the injection
[5] = local prostate implant 250 mg or 500 mg
[6] = beagle dog plasma, local prostate implant 250 mg, individual animals
[7] = beagle dog plasma, local prostate implant 500 mg, individual animals
[8] = male, beagle, dog, plasma, 250 mg, beagle dogs, local prostate implant 250 mg, Mean of four animals
[9] = male, beagle, dog, plasma, 500 mg, beagle dogs, local prostate implant 500 mg, Mean of four animals

CC(C)(O)C(=O)Nc1ccc([N+](=O)[O-])c(C(F)(F)F)c1 [2-hydroxy-flutamide]
diarrhea [1, 5]: no diarrhea observed | effect of the treatment on the urinated volume [1, 5]: no effect | side-effects [1, 5]: no side-effects were observed | microscopic findings of the prostate tissue (histopathology) ([1]; treated groups, local prostate implant): increased incidence of vacuolation and cystic acini | diarrhea ([2]; after intravenous administration 25 mg): all dogs suffered from diarrhea | diarrhea ([2]; after local administration of the controlled release composition in the prostate tissue): not observed in any animals | AUC [3, 6]: 8701 ng·h/mL and 5446 ng·h/mL and 5921 ng·h/mL and 13237 ng·h/mL | Cmax [3, 6]: 97 ng/mL and 58 ng/mL and 85 ng/mL and 131 ng/mL | Tmax [3, 6]: 48 h | t½ [3, 6]: 34 h and 39 h and 26 h | AUC [3, 7]: 13009 ng·h/mL and 13420 ng·h/mL and 11631 ng·h/mL | Cmax [3, 7]: 202 ng/mL and 133 ng/mL | Tmax [3, 7]: 48 h | t½ [3, 7]: 57 h and 59 h and 34 h and 28 h | F (bioavailability) ([3]; local prostate implant 250 mg, individual animals): 74% and 46% and 50% and 112% | F (bioavailability) ([3]; local prostate implant 500 mg, individual animals): 86% and 110% and 113% and 98% | half-life ([3]; male, beagle, dog, plasma, 250 mg, beagle dog plasma, local prostate implant 250 mg, individual animals): 32 h | AUC ([3]; male, beagle, dog, plasma, 250 mg, beagle dogs, local prostate implant 250 mg, Mean of four animals, read-out: AUC): 8330 ng·h/mL | Cmax ([3]; male, beagle, dog, plasma, 250 mg, beagle dogs, local prostate implant 250 mg, Mean of four animals, read-out: Cmax): 93 ng/mL | Tmax ([3]; male, beagle, dog, plasma, 250 mg, beagle dogs, local prostate implant 250 mg, Mean of four animals, read-out: tmax): 17 h | half-life [3, 8]: 33 h | AUC ([3]; male, beagle, dog, plasma, 500 mg, beagle dog plasma, local prostate implant 500 mg, individual animals, read-out: AUC): 10200 ng·h/mL | Cmax ([3]; male, beagle, dog, plasma, 500 mg, beagle dog plasma, local prostate implant 500 mg, individual animals, read-out: Cmax): 102 ng/mL | AUC ([3]; male, beagle, dog, plasma, 500 mg, beagle dogs, local prostate implant 500 mg, Mean of four animals, read-out: AUC): 12100 ng·h/mL | Cmax ([3]; male, beagle, dog, plasma, 500 mg, beagle dogs, local prostate implant 500 mg, Mean of four animals, read-out: Cmax): 145 ng/mL | Tmax ([3]; male, beagle, dog, plasma, 500 mg, beagle dogs, local prostate implant 500 mg, Mean of four animals, read-out: tmax): 27 h | half-life [3, 9]: 45 h | bioavailability [3, 8]: 71% | bioavailability [3, 9]: 102% | levels in prostate gland [4]: possible to quantify

Reference: US8936809B2, “Method for treating prostate diseases based on local delivery of active substances” (Lidds AB, priority 2005, dated 2015)
